Test results from US20090274773A1, “ANTIPROLIFERATIVE COMBINATION COMPRISING CYC-682 AND A CYTOTOXIC AGENT” (Cyclacel Limited, priority 2005, published 2009).

Key:
[1] = tested on: HOP62; assay: MTT growth inhibition assay, single agent; assay type: cell-based, human; details: Homo sapiens, HOP-62, 48 hours exposure, read-out: Antiproliferative effects IC50s (MTT assay)
Description: (§1) All cell lines were obtained from the ATCC (Rockville, Md.). Cells were grown as monolayers in RPMI medium supplemented with 10% fetal calf serum (Invitrogen, Cergy-Pontoise, France), 2 mM glutamine, 100 units/ml penicillin and 100 μg/ml streptomycin. All cells were split twice a week using trypsin/EDTA (0.25% and 0.02%, respectively; Invitrogen, Cergy-Pontoise, France) and seeded at a concentration of 2.5×10^4 cells/ml. All cell lines were tested regularly for Mycoplasma contamination by PCR using a Stratagene kit (La Jolla, Calif.).
(§2) The MTT assay was carried out as described previously (Hansen M B, Nielsen S E, Berg K. Re-examination and further development of a precise and rapid dye method for measuring cell growth/cell kill. J Immunol Methods. 1989 May 12; 119(2):203-10). In brief, cells were seeded in 96-well tissue culture plates at a density of 2×10^3 cells/well. Cell viability was determined after a 120-hour incubation, by the calorimetric conversion of yellow, water-soluble tetrazolium MTT (3-[4,5-dimethylthiazol-2-yl]-2,5-diphenyltetrazolium bromide; Sigma, Saint-Quentin Fallavier, France), into purple, water-insoluble formazan. This reaction is catalyzed by mitochondrial dehydrogenases and is used to estimate the relative number of viable cells (Mosmann, T, Rapid calorimetric assay for cellular growth and survival: application to proliferation and cytotoxicity assays. J Immunol Methods. 1983 Dec. 16; 65 (1-2):55-63). Cells were incubated with 0.4 mg/ml MTT for 4 hours at 37° C. After incubation, the supernatant was discarded, the cell pellet was resuspended in 0.1 ml of DMSO and the absorbance was measured at 560 nm using a microplate reader (Dynatech, Michigan). Wells with untreated cells or with drug-containing medium without cells were used as positive and negative controls, respectively. Growth inhibition curves were plotted as a percentage of untreated control cells.
(§3) The cells were seeded at 2×10^3 cells/well in 96-well plates and treated 24 hours later with increasing concentrations of CYC682. After incubation times of 1 hour, 24 hours or 48 hours, the cells were washed and post-incubated in drug-free medium for 72 hours. Growth inhibition was then determined by the MTT assay.

[2] = tested on: HT29; assay: MTT growth inhibition assay, single agent; assay type: cell-based, human; details: Homo sapiens, HT-29, 48 hours exposure, read-out: Antiproliferative effects IC50s (MTT assay)
Description: as §1, §2, §3

[3] = tested on: MDA-MB-435; assay: MTT growth inhibition assay, single agent; assay type: cell-based, human; details: Homo sapiens, 48 hours exposure, read-out: Antiproliferative effects IC50s (MTT assay)
Description: as §1, §2, §3

[4] = tested on: MCF7; assay: MTT growth inhibition assay, single agent; assay type: cell-based, human; details: Homo sapiens, 48 hours exposure, read-out: Antiproliferative effects IC50s (MTT assay)
Description: as §1, §2, §3

[5] = tested on: COLO205; assay: MTT growth inhibition assay, single agent; assay type: cell-based, human; details: Homo sapiens, COLO 205, 48 hours exposure, read-out: Antiproliferative effects IC50s (MTT assay)
Description: as §1, §2, §3

[6] = tested on: HOP92; assay: MTT growth inhibition assay, single agent; assay type: cell-based, human; details: Homo sapiens, HOP-92, 48 hours exposure, read-out: Antiproliferative effects IC50s (MTT assay)
Description: as §1, §2, §3

[7] = tested on: OVCAR1; assay: MTT growth inhibition assay, single agent; assay type: cell-based, human; details: Homo sapiens, 48 hours exposure, read-out: Antiproliferative effects IC50s (MTT assay)
Description: as §1, §2, §3

[8] = tested on: HCT116; assay: MTT growth inhibition assay, single agent; assay type: cell-based, human; details: Homo sapiens, HCT-116, 48 hours exposure, read-out: Antiproliferative effects IC50s (MTT assay)
Description: as §1, §2, §3

[9] = tested on: IGROV1; assay: MTT growth inhibition assay, single agent; assay type: cell-based, human; details: Homo sapiens, IGROV-1, 48 hours exposure, read-out: Antiproliferative effects IC50s (MTT assay)
Description: as §1, §2, §3

[10] = tested on: HCC2998; assay: MTT growth inhibition assay, single agent; assay type: cell-based, human; details: Homo sapiens, HCC 2998, 48 hours exposure, read-out: Antiproliferative effects IC50s (MTT assay)
Description: as §1, §2, §3

[11] = tested on: panel of human cancer cell lines; assay: Antiproliferative effects as single agent in a panel of human cancer cell lines (MTT); assay type: cell-based
Description: as §2, with “Wells with untreated cells or with drug-containing medium without cells were used as positive and negative controls, respectively. Growth inhibition curves were plotted as a percentage of untreated control cells.” left out
The cells were seeded at 2×10^3 cells/well in 96-well plates and treated 24 hours later with increasing concentrations of CYC682. […] Growth inhibition was then determined by the MTT assay. […]

[12] = tested on: colon cancer; details: cited from earlier work
[13] = phase I, patients with a variety of cancers; cited from earlier work

Compound | IC50 [1] | IC50 [2] | IC50 [3] | IC50 [4] | IC50 [5] | IC50 [6] | IC50 [7] | IC50 [8] | IC50 [9] | IC50 [10] | Cytotoxicity after 24 hour exposure ([11]; 24 hour exposure, panel of cell lines) | Anticancer activity in a model of colon cancer ([12]; in vivo) | Increasing survival and preventing spread of colon cancer metastases to the liver, versus gemcitabine or 5-FU ([12]; same colon cancer model) | Antiproliferative activity in panel ([11]; most cancer cell lines) | Dose limiting toxicity [13] | Tolerability in humans [13]
N#C[C@H]1[C@H](O)[C@@H](CO)O[C@H]1n1ccc(N)nc1=O [CNDAC, 1-(2-C-Cyano-2-deoxy-β-D-arabino-pentafuranosyl)-cytosine] | 7 ± 1.8 µM | 160 ± 43 µM | 95 ± 13 µM | 850 ± 60 µM | 8 ± 2 µM | 23 ± 6 µM | > 900 µM | 2.8 ± 0.6 µM | 89 ± 12 µM | 110 ± 21 µM | not sufficient | – | – | – | – | –
CCCCCCCCCCCCCCCC(=O)Nc1ccn([C@@H]2O[C@H](CO)[C@@H](O)[C@@H]2C#N)c(=O)n1 [CYC682, 2′-cyano-2′-deoxy-N^4-palmitoyl-1-β-D-arabinofuranosylcytosine] | 6 ± 1.7 µM | 4.5 ± 0.7 µM | 67 ± 14 µM | 7 ± 1.8 µM | 5 ± 0.8 µM | 38 ± 8 µM | 45 ± 7 µM | 3 ± 0.6 µM | 6.5 ± 1.6 µM | 3.5 ± 0.8 µM | – | strong anticancer activity | superior | antiproliferative activity at micromolar concentrations | myelosuppression | well tolerated
